# Measured values: patent US20220331500A1, “DIALYZER” (SCHOOL JURIDICAL PERSON THE KITASATO INSTITUTE, priority 2019, published 2022)
# Where two headings read alike, the source gives them in different places.
# Assays:
# [1] = NO donor, NO release; cited from earlier work
# Sprague Dawley rats [2] = settings: all groups (40, 80, 120 μM sodium nitrite)
# Protocol: (§1) Male Sprague Dawley rats (body weight: 300 g to 400 g) that were 8 to 12 weeks old were used. The rats were inhaled and anesthetized using isoflurane 1.5% to 3.0% as an anesthetic. Blood was removed from the carotid artery, and blood was returned into the tail vein. The blood flow rate was 0.5 mL/min to 1.0 mL/min, the dialysate flow rate was 3 mL/min, and the blood dialysis was performed for 4 hours by a parallel flow operation. Heparin was administered at 0.7 units/g at the start of dialysis.
# (§2) Dialysates in which the sodium nitrite concentration was adjusted to be 40 μM, 80 μM, and 120 μM were used. As a control group, a dialysate containing no sodium nitrite was used.
# (§3) During the experiment, arterial pressure, dialyzer inlet pressure, and venous pressure were measured at intervals of 15 minutes. Additionally, methemoglobin (Met-Hb) was measured at the start of the experiment and then at intervals of 60 minutes. Additionally, after the circulation was ended, the dialyzer was washed, and the amount of residual blood hemoglobin (Hb) amount and the activity value of residual blood lactate dehydrogenase (LDH) were measured.
# Sprague Dawley rats [3] = system: Sprague Dawley rats
# Protocol: as §1, §2, §3
# After the end of 4 hours of circulation, the dialyzer was washed with 10 mL of Lactec Injection and then a 0.5% Triton (Registered trademark) solution was circulated for 2 hours. After that, an LDH activity value in a washing solution was measured using a commercially available kit (“Cytotoxicity Measurement KitPLUS (LDH)” made by Roche Diagnostics K.K.) and used as the residual blood LDH activity value.
# Sprague Dawley rats [4] = system: Sprague Dawley rats; remark: listed apart in the source
# Protocol: Blood dialysis of rats was performed by changing the amount of nitrite to be supplied to the dialysate, and the optimal concentration of nitrite was examined.
# as §1
# As the dialysis unit (dialyzer), a small rat dialyzer having a cellulose triacetate membrane, 140 hollow fibers, an effective length of 146 mm, and a membrane area of 0.014 m^2 were used.
# as §2, §3
# The experiment was performed with a circulation time of 4 hours. When the dialyzer inlet pressure or venous pressure exceeded 250 mmHg, the circulation was ended.
# Sprague Dawley rats [5] = assay: Measurement of NO concentration in blood and dialysate during rat blood dialysis (OxiSelect Nitrite/Nitrate kit); type: in vivo; settings: 800 ppm NO gas; blood (out) venous side vs blood (in) arterial side of dialysis unit; 1 hour
# Protocol: (§4) NO gas of which the concentration was adjusted to 200 ppm, 400 ppm, and 800 ppm was added to the dialysate via a gas exchanger. As a control group, nitrogen gas (N2) was added to the dialysate instead of NO gas.
# For a group in which 800 ppm of NO gas was supplied to the dialysate, the dialysate was supplied to the blood (in) on an arterial side of the dialysis unit, the blood (out) on a venous side of the dialysis unit, the dialysate (in) in the dialysate supply channel for supplying the dialysate to the dialysis unit, and the dialysate (out) in the dialysate discharge channel for discharging the dialysate from the dialysis unit were collected 1 hour after the start of circulation, and the NO concentration was measured using a commercially available kit (“OxiSelect In Vitro Nitric Oxide (Nitrite/Nitrate) Assay Kit (Colorimetric)” made by Cell Biolabs, Inc.). The NO concentration was measured as the sum of the concentrations of NO2^− and NO3^− after the NO was completely hydrolyzed. For this reason, hereinafter, there is a case where the total concentration of […] is referred to as the NO concentration.
# Sprague Dawley rats [6] = assay: Methemoglobin (Met-Hb) during rat blood dialysis with NO gas; type: in vivo
# Protocol: as §4
# Sprague Dawley rats [7] = assay: Residual blood LDH activity value and residual blood Hb in the dialyzer after 4 hours of circulation (NO gas); type: in vivo, rat; settings: for amount of residual blood Hb: compared to control group
# Protocol: as §4
# (§5) FIG. 3 is a schematic diagram showing the structure of a circulation circuit in which the dialyzer is connected to a rat. […] In a case where it was possible to perform the 4-hours circulation, the residual blood in the dialyzer was evaluated.
# In FIG. 6, “Control” indicates the results of the control group, and “200 ppm”, “400 ppm”, and “800 ppm” indicate the results of a group in which NO gas of each concentration was supplied to the dialysate.
# Sprague Dawley rats [8] = assay: Rat blood dialysis with NO gas supplied to the dialysate: 4-hour circulation achievement rate; type: in vivo; settings: for 4-hour circulation achievement rate: rat blood dialysis
# Protocol: An extracorporeal perfusion type polymethylpentene membrane oxygenator was used for gas exchange.
# as §4, §5
# During the experiment, there was a case where the dialyzer inlet pressure or venous pressure increased, the blood coagulation in the dialyzer or the blood coagulation in the circuit were determined, and the circulation was stopped halfway. Thus, in all groups, the number of 4-hour circulation achievements with respect to the total number of experiments was calculated as the 4-hour circulation achievement rate.
# FIG. 4 is a graph showing the 4-hour circulation achievement rate. In FIG. 4, “Control” indicates the results of the control group, and “200 ppm”, “400 ppm”, and “800 ppm” indicate the results of a group in which NO gas of each concentration was supplied to the dialysate.
# [9] = 80 μM sodium nitrite in dialysate, compared to control group
# [10] = 120 μM sodium nitrite in dialysate, compared to control group
# [11] = extrapolated from the 200-800 ppm results
compound,measurement,setting,value
CC(C)N(CCCN)/[N+]([O-])=N/O [NOC5],Half-life,[1],25 min
CNCCCN(C)/[N+]([O-])=N/O [NOC7],Half-life,[1],5 min
CCNCCN(CC)[N+]([O-])=NO [NOC12],Half-life,[1],100 min
NCCN(CCN)/[N+]([O-])=N/O [NOC18],Half-life,[1],1260 min
COCC(/C(C)=C/C(=N/O)C(N)=O)[N+](=O)[O-] (stereo not drawn) [NOR1],Half-life,[1],1.8 min
CC/C(=C\C(CNC(=O)c1cccnc1)=N\O)C(C)[N+](=O)[O-] (stereo not drawn) [NOR4],Half-life,[1],60 min
O=NO [sodium nitrite],Met-Hb concentration,Sprague Dawley rats [2],≤ 2%
same,residual blood LDH activity value,"Sprague Dawley rats [3]; 40 μM sodium nitrite in dialysate, compared to control group",significantly lower
same,residual blood LDH activity value,Sprague Dawley rats [3]; 80 μM and 120 μM as compared to 40 μM,lower value
same,amount of residual blood Hb,Sprague Dawley rats [3]; [9],significantly lower
same,residual blood LDH activity value,Sprague Dawley rats [3]; [9],significantly lower
same,amount of residual blood Hb,Sprague Dawley rats [3]; [10],significantly lower
same,residual blood LDH activity value,Sprague Dawley rats [3]; [10],significantly lower
same,blood pressure (arterial pressure) during circulation,Sprague Dawley rats [4]; 40 μM sodium nitrite in dialysate,stable for 4 hours
same,blood pressure (arterial pressure) during circulation,Sprague Dawley rats [4]; 80 μM sodium nitrite in dialysate,stable for 4 hours
same,blood pressure (arterial pressure) during circulation,"Sprague Dawley rats [4]; 120 μM sodium nitrite in dialysate, vs control group",significantly lower
same,blood pressure (arterial pressure) during circulation,"Sprague Dawley rats [4]; 120 μM sodium nitrite in dialysate, vs control group, listed as nitrite ions",slight decrease
same,4 hours circulation,"Sprague Dawley rats [4]; sodium nitrite groups (40, 80, 120 μM) and control",circulate stably for 4 hours
nitric oxide [NO gas],amount of increase in NO concentration in blood,Sprague Dawley rats [5],about 3 μM
same,Met-Hb,Sprague Dawley rats [6]; 800 ppm NO gas,≤ 10%
same,adverse event,Sprague Dawley rats [6]; NO gas of 200 ppm to 800 ppm supplied to the dialysate,no adverse event occurred
same,Met-Hb,Sprague Dawley rats [6]; all NO-added groups (200 ppm to 800 ppm),less than 10%
same,amount of residual blood Hb,Sprague Dawley rats [7]; 200 ppm NO gas supplied to the dialysate,significantly lower
same,residual blood LDH activity value,"Sprague Dawley rats [7]; 200 ppm NO gas supplied to the dialysate, compared to control group (N2), after 4 hours",significantly lower
same,amount of residual blood Hb,Sprague Dawley rats [7]; 400 ppm NO gas supplied to the dialysate,significantly lower
same,residual blood LDH activity value,"Sprague Dawley rats [7]; 400 ppm NO gas supplied to the dialysate, compared to control group (N2), after 4 hours",significantly lower
same,amount of residual blood Hb,Sprague Dawley rats [7]; 800 ppm NO gas supplied to the dialysate,significantly lower
same,residual blood LDH activity value,"Sprague Dawley rats [7]; 800 ppm NO gas supplied to the dialysate, compared to control group (N2), after 4 hours",significantly lower
same,residual blood LDH activity value,Sprague Dawley rats [7]; as the NO concentration was higher (200 to 800 ppm),lower value
same,NO concentration at which the residual blood LDH activity value was 0 U/L,Sprague Dawley rats [7]; [11],6 µM
same,NO concentration at which the 4-hour circulation achievement rate was 100%,Sprague Dawley rats [8]; [11],5.4 µM
same,4-hour circulation achievement rate,Sprague Dawley rats [8]; 800 ppm compared with 200 ppm and 400 ppm,higher
same,4-hour circulation achievement rate,"Sprague Dawley rats [8]; as the concentration of NO gas supplied to the dialysate was higher (200, 400, 800 ppm)",increased
